Each structure is given as a SMILES string.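 Test compounds were applied to cells in 96-well plates for 48 hours at 5 doses. Abbreviation: GI50, concentration required for 50% inhibition of growth. TGI: concentration producing complete growth inhibition.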

The source of these data is PubChem BioAssay (NCI).

In one test the test system is KM12 colon. Description: NCI-60 cell line screen, 48 h.
As for `OCc1ccc(-c2ccc(-c3ccc(CO)s3)o2)s1`, the TGI amounted to 85.3 µM.

Another test deals with MCF7 breast. Put plainly: NCI-60 cell line screen, 48 h.
Take `CN1CCN(CCCn2c(=O)c3sc4ncccc4c3n3nnc(-c4ccccc4)c23)CC1`: the GI50 is 7.69 µM and the TGI worked out at 15 µM.
Compound `NC1(C(=O)OCc2ccccc2)CCCC1` showed a TGI greater than 100 µM.
As to `O=C(/C=C/c1ccc(Cl)cc1)c1ccc(Nc2ccnc3cc(Cl)ccc23)cc1`, the GI50 was 1.56 µM and the TGI is greater than 100 µM.
On the same counts, the results for `CCCCCCCC(=O)SCC/C=C/[C@@H]1CC(=O)NCc2cc(ccn2)C2=N[C@@](C)(CS2)C(=O)N[C@@H](C(C)C)C(=O)O1` are 0.0377 µM and greater than 33.3 µM.
In turn, `CSc1nc(NC2OCC(OC(C)=O)C(OC(C)=O)C2OC(C)=O)c(N=CC=Nc2c(NC3OCC(OC(C)=O)C(OC(C)=O)C3OC(C)=O)nc(SC)[nH]c2=O)c(=O)[nH]1` (stereo not given) showed a TGI greater than 100 µM.
The same measure, in the same setting: under `N#CC(C#N)=CNC(N)=S` stands greater than 100 µM.
Take `O=C1OC(O)[C@@H]2[C@H]1[C@H]1CC[C@@H]2O1` (stereo not given in full): the GI50 is greater than 100 µM and the TGI was greater than 100 µM.
For `O=C1c2cc3c(cc2-c2c1c1ccc(F)cc1c(=O)n2CCCNCCO)OCO3`, the TGI was found to be 0.166 µM.
Same read-out and setting: under `COC(=O)C1=C(C)NC(C)=C(C(=O)OCCCN2CCC(c3ccccc3)(c3ccccc3)CC2)C1c1cccc([N+](=O)[O-])c1` (stereo not given) stands 3.74 µM; under `N=Nc1c(OC(=O)Nc2cccc(Cl)c2)[nH]c2ccccc12`, 23.5 µM; under `CC1(C)C2CCC(=O)C1CC2` (stereo not given), greater than 100 µM.
As to `Fc1cc2[nH]ncc2c2c3c(c(-c4cn[nH]c4)nc12)CCCC3`, the GI50 was 1.45 µM and the TGI was 12.8 µM.
As for `CCN1CCN(c2nc(C)cc(N(CCNc3ccnc4cc(Cl)ccc34)Cc3ccc4c(c3)OCO4)n2)CC1`, the GI50 was 1.98 µM and the TGI was determined as 5.89 µM.
On the same counts, the results for `CCN(CC)c1ccc(-c2cc(-c3cc(OC)c(OC)c(OC)c3)nc(N3CCOCC3)c2C#N)cc1` are 2.03 µM and 17.7 µM.
Turning to `C=C(Br)C(C)(Br)CCC(Br)C(C)(C)Cl` (stereo not given), the TGI came to 31.5 µM.
Consider `O=C(CCc1nnc2sc(-c3ccc(Cl)cc3Cl)nn12)c1nc2ncccc2[nH]1`, for which the GI50 was 2.59 µM and the TGI is greater than 100 µM.
Regarding `COc1ccc(-c2nnc(COc3ccc(C(=O)/C=C/c4ccco4)cc3)o2)cc1`, the GI50 was 1.39 µM and the TGI turned out to be 3.28 µM.
With `OCc1ccc(-c2ccc(-c3ccc(CO)s3)o2)s1`, the TGI was 2.59 µM.

For the next test, the system named is MOLT-4 leukemia. Put plainly: NCI-60 cell line screen, 48 h.
Regarding `CN1CCN(CCCn2c(=O)c3sc4ncccc4c3n3nnc(-c4ccccc4)c23)CC1`, the GI50 is 1.55 µM and the TGI worked out at 4.95 µM.
Take `NC1(C(=O)OCc2ccccc2)CCCC1`: the TGI came to 83 µM.
In the case of `O=C(/C=C/c1ccc(Cl)cc1)c1ccc(Nc2ccnc3cc(Cl)ccc23)cc1`, the GI50 is 5.46 µM and the TGI was greater than 100 µM.
For the compound `CCCCCCCC(=O)SCC/C=C/[C@@H]1CC(=O)NCc2cc(ccn2)C2=N[C@@](C)(CS2)C(=O)N[C@@H](C(C)C)C(=O)O1`, the GI50 is 0.0133 µM and the TGI is greater than 28.7 µM.
`CSc1nc(NC2OCC(OC(C)=O)C(OC(C)=O)C2OC(C)=O)c(N=CC=Nc2c(NC3OCC(OC(C)=O)C(OC(C)=O)C3OC(C)=O)nc(SC)[nH]c2=O)c(=O)[nH]1` (stereo not given) returned a TGI greater than 100 µM.
On the same count and under the same terms, with `N#CC(C#N)=CNC(N)=S` the figure was greater than 100 µM.
On to `O=C1OC(O)[C@@H]2[C@H]1[C@H]1CC[C@@H]2O1` (stereo not given in full), for which the GI50 is greater than 100 µM and the TGI was greater than 100 µM.
For the compound `O=C1c2cc3c(cc2-c2c1c1ccc(F)cc1c(=O)n2CCCNCCO)OCO3`, the GI50 was 0.024 µM and the TGI was found to be 1.24 µM.
`COC(=O)C1=C(C)NC(C)=C(C(=O)OCCCN2CCC(c3ccccc3)(c3ccccc3)CC2)C1c1cccc([N+](=O)[O-])c1` (stereo not given) showed a TGI of 10 µM.
In the case of `N=Nc1c(OC(=O)Nc2cccc(Cl)c2)[nH]c2ccccc12`, the TGI is 25.8 µM.
Still for that read-out and setting: with `CC1(C)C2CCC(=O)C1CC2` (stereo not given) the figure was greater than 100 µM.
`Fc1cc2[nH]ncc2c2c3c(c(-c4cn[nH]c4)nc12)CCCC3`: the GI50 is 1.72 µM and the TGI is 6.15 µM.
For `CCN1CCN(c2nc(C)cc(N(CCNc3ccnc4cc(Cl)ccc34)Cc3ccc4c(c3)OCO4)n2)CC1`, the GI50 was 2.1 µM and the TGI turned out to be 6.2 µM.
On the same counts, the results for `CCN(CC)c1ccc(-c2cc(-c3cc(OC)c(OC)c(OC)c3)nc(N3CCOCC3)c2C#N)cc1` are 2.45 µM and greater than 100 µM.
Take `C=C(Br)C(C)(Br)CCC(Br)C(C)(C)Cl` (stereo not given): the TGI amounted to 24.5 µM.
Take `O=C(CCc1nnc2sc(-c3ccc(Cl)cc3Cl)nn12)c1nc2ncccc2[nH]1`: the GI50 was 1.15 µM and the TGI amounted to 60.8 µM.
For `COc1ccc(-c2nnc(COc3ccc(C(=O)/C=C/c4ccco4)cc3)o2)cc1`, the GI50 was 2.89 µM and the TGI was determined as 9.05 µM.
Compound `OCc1ccc(-c2ccc(-c3ccc(CO)s3)o2)s1` showed a TGI of 71.5 µM.

A further test relates to SK-OV-3 ovarian. Description: NCI-60 cell line screen, 48 h.
For `CN1CCN(CCCn2c(=O)c3sc4ncccc4c3n3nnc(-c4ccccc4)c23)CC1`, the GI50 is 8.88 µM and the TGI amounted to 15.9 µM.
The compound `NC1(C(=O)OCc2ccccc2)CCCC1` gave a TGI of 71.1 µM.
As to `O=C(/C=C/c1ccc(Cl)cc1)c1ccc(Nc2ccnc3cc(Cl)ccc23)cc1`, the GI50 is greater than 100 µM and the TGI was greater than 100 µM.
As to `CCCCCCCC(=O)SCC/C=C/[C@@H]1CC(=O)NCc2cc(ccn2)C2=N[C@@](C)(CS2)C(=O)N[C@@H](C(C)C)C(=O)O1`, the GI50 is 0.00841 µM and the TGI stood at 0.0716 µM.
As to `CSc1nc(NC2OCC(OC(C)=O)C(OC(C)=O)C2OC(C)=O)c(N=CC=Nc2c(NC3OCC(OC(C)=O)C(OC(C)=O)C3OC(C)=O)nc(SC)[nH]c2=O)c(=O)[nH]1` (stereo not given), the TGI amounted to 80.1 µM.
The same measure, in the same setting: under `N#CC(C#N)=CNC(N)=S` stands greater than 100 µM.
Regarding `O=C1OC(O)[C@@H]2[C@H]1[C@H]1CC[C@@H]2O1` (stereo not given in full), the GI50 was greater than 100 µM and the TGI was greater than 100 µM.
Take `O=C1c2cc3c(cc2-c2c1c1ccc(F)cc1c(=O)n2CCCNCCO)OCO3`: the GI50 is 0.0525 µM and the TGI was 0.566 µM.
As for `COC(=O)C1=C(C)NC(C)=C(C(=O)OCCCN2CCC(c3ccccc3)(c3ccccc3)CC2)C1c1cccc([N+](=O)[O-])c1` (stereo not given), the TGI amounted to 12.9 µM.
